Test results as given in the METLIN SMRT retention time set (Domingo-Almenara et al. 2019).

Experiment: gradient 5% acetonitrile 3 min, to 50% in 2 min, to 85% in 15 min, held 3 min, 100 µL/min
Conditions: column: Zorbax Extend-C18 2.1 x 50 mm; eluents: water / acetonitrile, 0.1% formic acid
Outline: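 Retention times of pure standards were taken from adduct peaks that were selected by computer and manually inspected. Over 3 months, mixtures of ~100 molecules were run by HPLC–quadrupole time-of-flight mass spectrometry in positive and negative ionization mode. The Zorbax Extend-C18 column (2.1 × 50 mm, 1.8 μm) ran at 100 μL/min in water and acetonitrile, each containing 0.1% formic acid, with 40 μL dead volume and 900 μL dwell volume.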

Row | RP-LC retention time [s] | SMILES
1 | 1220 | COc1nc2ccccc2nc1N1CCCC(C(=O)Nc2cccc(Cl)c2)C1 (stereo unspecified)
2 | 627 | COc1ccc(OC)c(NC(=O)N2CCN(c3cc(C)nc(N4CCOCC4)n3)CC2)c1
3 | 858 | COc1ccccc1CNC(=O)c1nnc(-c2ccc(S(=O)(=O)N3CCOCC3)cc2)o1
4 | 682 | Cc1[nH]c2ccccc2c1C(=O)C(c1ccccc1)N1CCN(c2ncccn2)CC1 (stereo unspecified)
5 | 639 | Cc1ccc2c(c1)NN=C(C(=O)N1CCOCC1)S2(=O)=O
6 | 701 | Fc1ccc(-c2noc(-c3nnc(NCCN4CCOCC4)c4ccccc34)n2)cc1
7 | 725 | COc1ccc(CN2N=C(C(=O)N3CCCC3)S(=O)(=O)c3ccccc32)cc1F
8 | 568 | Cc1cnc(C2CN(C(=O)c3ccnn3C)C2)n1CC1CC1
9 | 859 | O=C1NC2(CCN(C(=O)c3ccc4ccccc4c3)CC2)N=C1c1ccccc1
10 | 682 | CCC(CC)C(=O)N1CCCC(Cn2c(C3CC3)nc3cccnc32)C1 (stereo unspecified)
11 | 570 | COc1nccnc1NC1CCN(C(=O)c2cccn2C)CC1
12 | 694 | COC(=O)CSc1nnc(-c2sc3ncccc3c2N)n1C1CC1
13 | 808 | CCCn1cc(CCNC(=O)Nc2cc(C)ccc2C)c2cccnc21
14 | 665 | COc1ccc2c(ccn2CC(=O)N[C@@H](C)C(=O)O)c1
15 | 892 | Cc1[nH]c(C(=O)N2CCCC(C(=O)N3CCN(c4ccccc4)CC3)C2)c(C)c1C(=O)OC(C)C (stereo unspecified)
16 | 1150 | Cc1nc(-c2csc(S(=O)(=O)NC3CCCCCC3)c2)sc1C
17 | 963 | CCC1Oc2ccc(S(=O)(=O)N3CCC(C(=O)NCc4ccc(C)cc4)CC3)cc2NC1=O (stereo unspecified)
18 | 778 | COc1ccc(-c2cn3cccnc3n2)cc1NC(=O)c1ccc(C(F)(F)F)cc1
19 | 599 | c1cc(-c2nc(-c3ccc4c(c3)nnn4CCN3CCCCC3)no2)ccn1
20 | 796 | CC(=O)c1cccc(NC(=O)Cn2c(=O)n(-c3cccc(C)c3)c(=O)c3c2cc(C)n3C)c1
21 | 814 | CC1(C)O[C@@H]2C[C@H]3[C@@H]4CCC5=CC(=O)C=C[C@]5(C)[C@H]4[C@@H](O)C[C@]3(C)[C@]2(C(=O)CO)O1
22 | 870 | O=C(CC(F)(F)F)N1CCC(c2noc(-c3ccccc3)n2)C1 (stereo unspecified)

Row | RP-LC retention time [s] | SMILES
23 | 625 | CN1CCN(CCC(=O)N2CCC(c3c[nH]c4ccccc34)(c3c[nH]c4ccccc34)CC2)CC1
24 | 797 | Cc1ccc(NC(=O)N2C[C@H](c3nc(-c4ccncc4)no3)[C@@H](C)C2)c(C)c1
25 | 684 | CCNc1nc(C)cc(N2CCN(C(=O)Nc3ccc(C)c(C)c3)CC2)n1
26 | 1170 | Cc1ccc(N2CC(c3noc(-c4ccc(OC(F)(F)F)cc4)n3)CC2=O)cc1 (stereo unspecified)
27 | 1060 | O=C1NC(=O)c2c(NC(=O)C3(c4ccc(Cl)cc4)CCCC3)cccc21
28 | 707 | COc1ccc(NS(=O)(=O)c2cc(-c3[nH]ncc3C(=O)N3CCCC3)oc2C)c(C)c1
29 | 638 | CCCN1CCN(C(=O)CSCc2nc3cccnc3n2C2CCCCC2)CC1
30 | 796 | COC(=O)c1cc(OCC(=O)Nc2ccc(OC)cc2)c2cc(F)ccc2n1
31 | 638 | O=C(c1cc(S(=O)(=O)N2CCCC(C(=O)N3CCOCC3)C2)c[nH]1)N1CCCC1 (stereo unspecified)
32 | 612 | Cc1ccc2c(c1)C(C)(C)C(=O)N2CC(=O)NCc1cccnc1
33 | 800 | CCC1Oc2ccc(S(=O)(=O)N3CCC(C(=O)N(C)Cc4ccco4)CC3)cc2NC1=O (stereo unspecified)
34 | 711 | COc1ccc(-c2nnc(COc3ccc(NC(=O)c4cccnc4)cc3)o2)cc1
35 | 845 | C[C@@H](Nc1cc(NS(=O)(=O)N2CCC2)nc(SCc2cccc(F)c2F)n1)[C@@H](O)CO
36 | 718 | COc1ccc(NC(=O)Nc2cccn3c(C4CCC4)nnc23)cc1OC
37 | 1320 | COc1ccc(-n2c(=O)c(C(=O)Nc3ccc(F)cc3Cl)c(O)c3cccnc32)cc1
38 | 1140 | CCn1c(C(=O)N2CCCC(C(=O)N3CCN(c4cccc(C)c4C)CC3)C2)cc2sccc21 (stereo unspecified)
39 | 704 | COc1cc2ncnc(Nc3ccc(F)c(Cl)c3)c2cc1NC(=O)/C=C/CN1CCCCC1
40 | 1240 | CCOC(=O)c1ccc2nc(C(F)(F)F)nc(NCc3ccc(Cl)cc3)c2c1
41 | 609 | COc1ccc(C2C(C(=O)NCc3ccccn3)c3cc(OC)c(OC)cc3C(=O)N2C)cc1 (stereo unspecified)
42 | 596 | O=C(CC1CCN(C(=O)C2CCCCC2)CC1)NCc1ccccn1
43 | 862 | CC1(C(=O)NCc2ccccc2)CCN(S(=O)(=O)c2cccc(C#N)c2)CC1
44 | 730 | Cc1ccc(CNC(=O)c2ccc3c(c2)CC(=O)N3C)cc1

Row | RP-LC retention time [s] | SMILES
45 | 890 | COCCNC(=O)c1nnn(Cc2ccc(Cl)cc2)c1-n1cccc1
46 | 751 | Cc1ccc(/C=C/C(=O)N2CCC(c3cc(N)on3)CC2)cc1
47 | 662 | COc1ccc(CC(=O)N2CCC(c3cc(N)on3)CC2)cc1
48 | 938 | COC(=O)c1cc(S(=O)(=O)N2CCCC2C(=O)Nc2ccc(F)cc2Cl)cn1C (stereo unspecified)
49 | 834 | O=c1c2nc(-c3ccc4c(c3)OCO4)cn2ccn1-c1cccc(Cl)c1
50 | 633 | COc1ccc2nc3oc(C(=O)NCCN4CCCCC4C)cc3cc2c1 (stereo unspecified)
51 | 821 | COc1ccc(C(C)NC(=O)C2=C3CCCN3c3ccc(F)cc3S2(=O)=O)cc1OC (stereo unspecified)
52 | 1210 | Cc1nc2cc(-c3noc(-c4ccc(C(F)(F)F)cc4)n3)ccc2o1
53 | 650 | CC(=O)c1cccc(NC(=O)Cn2c(-c3cnccn3)nc(C)c(C)c2=O)c1
54 | 887 | CCN1C(=O)c2cc(C(=O)Nc3cccc(Cl)c3)nn2CC1(C)C(=O)NC1CCCC1 (stereo unspecified)
55 | 979 | CCCn1c(=O)sc2cc(S(=O)(=O)N3CCC(C(=O)NC(C)(C)CC)CC3)ccc21
56 | 986 | CC(C)c1cc(C(=O)NCc2ccc3c(c2)OCO3)nc2cc(-c3ccccn3)nn12
57 | 718 | CC(C)CNC(=O)Cc1nnc(-c2ccccc2)o1
58 | 754 | CCOc1ccc(N2CC(NC(=O)Nc3ccc(OC(F)F)cc3)CC2=O)cc1 (stereo unspecified)
59 | 1100 | Cc1cc(C)cc(NC(=O)C2CCN(c3c(C(=O)N4CCC(C)CC4)cnc4snc(C)c34)CC2)c1
60 | 903 | COc1ccc(S(=O)(=O)N2CCCC(C)(C(=O)NCc3cccc(OC)c3)C2)cc1 (stereo unspecified)
61 | 821 | Cc1ccccc1CCNC(=O)c1cc2n(n1)CC(C)(C(=O)NCc1ccc(F)cc1)N(C)C2=O (stereo unspecified)
62 | 698 | COCCN1C(=O)CC[C@]2(C(=O)NCc3ccc(OC)cc3OC)CCCC[C@@H]12
63 | 877 | COc1ccc(NS(=O)(=O)c2ccc(-c3c(C)noc3C)cc2)cc1
64 | 867 | COc1ccc(NC(=O)c2sc(-c3cn(C)c4ncccc34)nc2C)cc1
65 | 951 | CC(C)CC(=O)N1C[C@H](c2nc(-c3ccccc3)no2)[C@@H](C)C1
66 | 580 | Cc1cc(N2CCN(C)CC2)nc(N2CCN(S(=O)(=O)c3ccc(Br)cc3)CC2)n1

Row | RP-LC retention time [s] | SMILES
67 | 778 | CSc1ccc(-c2nc3cnccn3c2Nc2ccc(C(=O)NCc3ccco3)cc2)cc1
68 | 861 | COc1cccc(S(=O)(=O)N2CCC(N3CCN(Cc4ccc(C)cc4)C(=O)C3=O)CC2)c1
69 | 998 | CCc1nc2ccccc2c(=O)n1Cc1noc(-c2cccc(N(C)C)c2)n1
70 | 1050 | COc1ccc2c(c1[N+](=O)[O-])CC[C@@H]1[C@@H]2CC[C@]2(C)C(=O)CC[C@@H]12
71 | 760 | CCc1cc(=O)n(CC(=O)Nc2ccc(F)cc2C)c(N2CCOCC2)n1
72 | 924 | O=C1NCCCCCCN(C(=O)C2CCCCC2)[C@H]2C[C@H](C(=O)N3CCc4ccccc4C3)C[C@@H]12
73 | 664 | Cc1ccc(C)c(Nc2c(-c3ccc(O)cc3)nc3ncccn23)c1
74 | 938 | CCCCOc1ccccc1C1NC(=O)NC(C)=C1C(=O)OCc1ccco1 (stereo unspecified)
75 | 959 | Cc1ccc(-c2nnc(N3CCC(C(=O)NCC4CCCCC4)CC3)o2)cc1
76 | 910 | O=C(NCc1csc(-c2ccccc2)n1)C1CCN(S(=O)(=O)c2ccc(F)cc2)CC1
77 | 864 | O=C(Nc1ccc2c(c1)OCCO2)c1ccc(-c2ccsc2)nc1
78 | 879 | O=C(NCCc1c[nH]c2ccc(Cl)cc12)Nc1ccccc1
79 | 775 | O=S(=O)(c1ccc2c(c1)CCC2)N1CCCC(Cn2c(C3CC3)nc3cccnc32)C1 (stereo unspecified)
80 | 571 | CCOC(=O)N1CCN(C(=O)CN2CCC(COCc3ccccc3)CC2)CC1
81 | 656 | CCOc1ccc(-c2nc(CN3CCN(C(=O)NC(C)C)CC3)c(C)o2)cc1
82 | 857 | CCCC1(CO)CCCN1C(=O)c1nn(C)c2ccccc12 (stereo unspecified)
83 | 662 | COCCNC(=O)CSc1cc(N2CCN(c3ccc(OC)cc3)CC2)ncn1
84 | 1040 | Cc1cc(=O)n(CC(=O)Nc2ccc3c(c2)OCO3)c(-c2ccc(Cl)cc2)n1
85 | 958 | CCOc1ccc(C2Cn3nnc(-c4nc(-c5ccncc5)no4)c3CO2)cc1 (stereo unspecified)

Row | SMILES | RP-LC retention time [s]
86 | O=C(Cn1c(Cc2ccccc2)nc2ccccc21)N1CCOCC1 | 593
